Assay results reported in patent publication US10238670B2, “9-aminomethyl minocycline compounds and methods of use thereof in urinary tract infection (UTI) treatment” (Paratek Pharmaceuticals, Inc., priority 2016, dated 2019).
Values after ≈ are worked out from the molar mass of the structure shown. Read-outs that look alike come from different tables or passages of the source.

Tests used:
Assay in all cases: In vitro MIC, 2010 surveillance isolates
E. coli ESBL− = format: cell-based, Escherichia coli
E. coli ESBL+ = format: cell-based, Escherichia coli
K. pneumoniae ESBL− = format: cell-based, Klebsiella pneumoniae
K. pneumoniae ESBL+ = format: cell-based, Klebsiella pneumoniae
K. oxytoca = format: cell-based
E. cloacae CeftazS = format: cell-based
E. cloacae CeftazR = format: cell-based
Enterobacter spp = format: cell-based
A. baumanii = format: cell-based
Acinetobacter spp = format: cell-based
MSSA = format: cell-based
MRSA = format: cell-based
MS CoNS = format: cell-based, Coagulase-Negative Staphylococcus
MR CoNS = format: cell-based, Coagulase-Negative Staphylococcus
E. faecalis VS = format: cell-based; details: for % R (resistance): CLSI breakpoints
E. faecalis VNS = format: cell-based; details: for % R (resistance): CLSI breakpoints
E. faecium VS = format: cell-based; details: for % R (resistance): CLSI breakpoints
E. faecium VNS = format: cell-based; details: for % R (resistance): CLSI breakpoints

MIC90 (E. coli ESBL−; Asia/Pac, N=282): > 4 µg/mL
MIC90 (E. coli ESBL−; Europe, N=1533): > 4 µg/mL
MIC90 (E. coli ESBL−; L. Amer, N=389): > 4 µg/mL
MIC90 (E. coli ESBL−; N America, N=1172): > 4 µg/mL
MIC90 (E. coli ESBL+; Asia/Pac, N=219): > 4 µg/mL
MIC90 (E. coli ESBL+; Escherichia coli, ESBL-producing E. coli, read-out: MIC90): > 4 µg/mL
MIC90 (E. coli ESBL+; Europe, N=274): > 4 µg/mL
MIC90 (E. coli ESBL+; L. Amer, N=168): > 4 µg/mL
MIC90 (E. coli ESBL+; N America, N=134): > 4 µg/mL
MIC90 (K. pneumoniae ESBL−; Asia/Pac, N=189): 1 µg/mL (≈ 2.77 µM)
MIC90 (K. pneumoniae ESBL−; Europe, N=361): ≤ 0.5 µg/mL
MIC90 (K. pneumoniae ESBL−; L. Amer, N=160): 1 µg/mL (≈ 2.77 µM)
MIC90 (K. pneumoniae ESBL−; N America, N=671): ≤ 0.5 µg/mL
MIC90 (K. pneumoniae ESBL+; Asia/Pac, N=124): > 4 µg/mL
MIC90 (K. pneumoniae ESBL+; Europe, N=151): > 4 µg/mL
MIC90 (K. pneumoniae ESBL+; L. Amer, N=209): > 4 µg/mL
MIC90 (K. pneumoniae ESBL+; N America, N=108): > 4 µg/mL
MIC90 (K. oxytoca; Asia/Pac, N=17): ≤ 0.5 µg/mL
MIC90 (K. oxytoca; Europe, N=158): ≤ 0.5 µg/mL
MIC90 (K. oxytoca; L. Amer, N=25): > 4 µg/mL
MIC90 (K. oxytoca; N America, N=177): ≤ 0.5 µg/mL
MIC90 (E. cloacae CeftazS; Asia/Pac, N=100): ≤ 0.5 µg/mL
MIC90 (E. cloacae CeftazS; Europe, N=183): ≤ 0.5 µg/mL
MIC90 (E. cloacae CeftazS; L. Amer, N=57): > 4 µg/mL
MIC90 (E. cloacae CeftazS; N America, N=210): ≤ 0.5 µg/mL
MIC90 (E. cloacae CeftazR; Asia/Pac, N=63): > 4 µg/mL
MIC90 (E. cloacae CeftazR; Europe, N=72): > 4 µg/mL
MIC90 (E. cloacae CeftazR; L. Amer, N=42): > 4 µg/mL
MIC90 (E. cloacae CeftazR; N America, N=77): > 4 µg/mL
MIC90 (Enterobacter spp; Asia/Pac, N=52): ≤ 0.5 µg/mL
MIC90 (Enterobacter spp; Europe, N=82): 1 µg/mL (≈ 2.77 µM)
MIC90 (Enterobacter spp; L. Amer, N=42): 4 µg/mL (≈ 11.1 µM)
MIC90 (Enterobacter spp; N America, N=101): ≤ 0.5 µg/mL
MIC90 (A. baumanii; Asia/Pac, N=275): > 4 µg/mL
MIC90 (A. baumanii; Europe, N=145): > 4 µg/mL
MIC90 (A. baumanii; L. Amer, N=275): > 4 µg/mL
MIC90 (A. baumanii; N America, N=154): > 4 µg/mL
MIC90 (Acinetobacter spp; Europe, N=43): > 4 µg/mL
MIC90 (Acinetobacter spp; N America, N=42): > 4 µg/mL
MIC90 (MSSA; Asia/Pac, N=641): ≤ 0.5 µg/mL
MIC90 (MSSA; Europe, N=2109): ≤ 0.5 µg/mL
MIC90 (MSSA; L. Amer, N=590): ≤ 0.5 µg/mL
MIC90 (MSSA; N America, N=2373): 4 µg/mL (≈ 11.1 µM)
MIC90 (MRSA; Asia/Pac, N=428): > 4 µg/mL
MIC90 (MRSA; Europe, N=750): > 4 µg/mL
MIC90 (MRSA; L. Amer, N=506): > 4 µg/mL
MIC90 (MRSA; N America, N=2508): > 4 µg/mL
MIC90 (MS CoNS; Asia/Pac, N=18): > 4 µg/mL
MIC90 (MS CoNS; Europe, N=185): 2 µg/mL (≈ 5.53 µM)
MIC90 (MS CoNS; L. Amer, N=67): ≤ 0.5 µg/mL
MIC90 (MS CoNS; N America, N=191): > 4 µg/mL
MIC90 (MR CoNS; Asia/Pac, N=77): > 4 µg/mL
MIC90 (MR CoNS; Europe, N=510): > 4 µg/mL
MIC90 (MR CoNS; L. Amer, N=301): > 4 µg/mL
MIC90 (MR CoNS; N America, N=461): > 4 µg/mL
MIC90 (E. faecalis VS; Asia/Pac, N=214): > 4 µg/mL
MIC90 (E. faecalis VS; Europe, N=669): > 4 µg/mL
MIC90 (E. faecalis VS; L. Amer, N=290): > 4 µg/mL
MIC90 (E. faecalis VS; N America, N=863): > 4 µg/mL
range of MICs (N <10, shown instead of MIC90) (E. faecalis VNS; Asia/Pac, N=1): >4
range of MICs (N <10, shown instead of MIC90) (E. faecalis VNS; L. Amer, N=7): > 4
MIC90 (E. faecalis VNS; N America, N=38): > 4 µg/mL
MIC90 (E. faecium VS; Asia/Pac, N=106): > 4 µg/mL
MIC90 (E. faecium VS; Europe, N=303): > 4 µg/mL
MIC90 (E. faecium VS; L. Amer, N=51): > 4 µg/mL
MIC90 (E. faecium VS; N America, N=115): > 4 µg/mL
MIC90 (E. faecium VNS; Asia/Pac, N=24): > 4 µg/mL
MIC90 (E. faecium VNS; Europe, N=71): > 4 µg/mL
MIC90 (E. faecium VNS; L. Amer, N=41): > 4 µg/mL
MIC90 (E. faecium VNS; N America, N=478): > 4 µg/mL
Compound: C[C@H]1COc2c(N3CCN(C)CC3)c(F)cc3c(=O)c(C(=O)O)cn1c23 [Levofloxacin]
% R (resistance) (E. coli ESBL−; Asia/Pac, Eucast breakpoints): 17%
% R (resistance) (E. coli ESBL−; Europe, Eucast breakpoints): 19.3%
% R (resistance) (E. coli ESBL−; L. Amer, CLSI breakpoints): 22.9%
% R (resistance) (E. coli ESBL−; N America, CLSI breakpoints): 21.9%
% R (resistance) (E. coli ESBL+; Asia/Pac, Eucast breakpoints): 78.1%
resistance rates for ESBL-producing clinical isolates (E. coli ESBL+; E. coli): 76.5%
% R (resistance) (E. coli ESBL+; Europe, Eucast breakpoints): 79.2%
% R (resistance) (E. coli ESBL+; L. Amer, CLSI breakpoints): 81%
% R (resistance) (E. coli ESBL+; N America, CLSI breakpoints): 74.6%
% R (resistance) (K. pneumoniae ESBL−; Asia/Pac, Eucast breakpoints): 5.3%
% R (resistance) (K. pneumoniae ESBL−; Europe, Eucast breakpoints): 4.2%
% R (resistance) (K. pneumoniae ESBL−; L. Amer, CLSI breakpoints): 7.5%
% R (resistance) (K. pneumoniae ESBL−; N America, CLSI breakpoints): 1.9%
% R (resistance) (K. pneumoniae ESBL+; Asia/Pac, Eucast breakpoints): 61.3%
% R (resistance) (K. pneumoniae ESBL+; Europe, Eucast breakpoints): 66.9%
% R (resistance) (K. pneumoniae ESBL+; L. Amer, CLSI breakpoints): 67.9%
% R (resistance) (K. pneumoniae ESBL+; N America, CLSI breakpoints): 75%
% R (resistance) (K. oxytoca; Asia/Pac, Eucast breakpoints): 0%
% R (resistance) (K. oxytoca; Europe, Eucast breakpoints): 3.2%
% R (resistance) (K. oxytoca; L. Amer, CLSI breakpoints): 16%
% R (resistance) (K. oxytoca; N America, CLSI breakpoints): 1.7%
% R (resistance) (E. cloacae CeftazS; Asia/Pac, Eucast breakpoints): 4%
% R (resistance) (E. cloacae CeftazS; Europe, Eucast breakpoints): 2.2%
% R (resistance) (E. cloacae CeftazS; L. Amer, CLSI breakpoints): 12.3%
% R (resistance) (E. cloacae CeftazS; N America, CLSI breakpoints): 2.9%
% R (resistance) (E. cloacae CeftazR; Asia/Pac, Eucast breakpoints): 20.6%
% R (resistance) (E. cloacae CeftazR; Europe, Eucast breakpoints): 22.2%
% R (resistance) (E. cloacae CeftazR; L. Amer, CLSI breakpoints): 31%
% R (resistance) (E. cloacae CeftazR; N America, CLSI breakpoints): 19.5%
% R (resistance) (Enterobacter spp; Asia/Pac, Eucast breakpoints): 1.9%
% R (resistance) (Enterobacter spp; Europe, Eucast breakpoints): 73%
% R (resistance) (Enterobacter spp; L. Amer, CLSI breakpoints): 9.5%
% R (resistance) (Enterobacter spp; N America, CLSI breakpoints): 1%
% R (resistance) (A. baumanii; Asia/Pac, Eucast breakpoints): 79.3%
% R (resistance) (A. baumanii; Europe, Eucast breakpoints): 74.5%
% R (resistance) (A. baumanii; L. Amer, CLSI breakpoints): 86.9%
% R (resistance) (A. baumanii; N America, CLSI breakpoints): 68.8%
% R (resistance) (Acinetobacter spp; Asia/Pac, Eucast breakpoints): 11.1%
% R (resistance) (Acinetobacter spp; Europe, Eucast breakpoints): 41.9%
% R (resistance) (Acinetobacter spp; L. Amer, CLSI breakpoints): 33.3%
% R (resistance) (Acinetobacter spp; N America, CLSI breakpoints): 14.3%
% R (resistance) (MSSA; Asia/Pac, Eucast breakpoints): 5.9%
% R (resistance) (MSSA; Europe, Eucast breakpoints): 5.5%
% R (resistance) (MSSA; L. Amer, CLSI breakpoints): 2.2%
% R (resistance) (MSSA; N America, CLSI breakpoints): 10.8%
% R (resistance) (MRSA; Asia/Pac, Eucast breakpoints): 70.6%
% R (resistance) (MRSA; Europe, Eucast breakpoints): 86.4%
% R (resistance) (MRSA; L. Amer, CLSI breakpoints): 84%
% R (resistance) (MRSA; N America, CLSI breakpoints): 67.3%
% R (resistance) (MS CoNS; Asia/Pac, Eucast breakpoints): 16.7%
% R (resistance) (MS CoNS; Europe, Eucast breakpoints): 9.7%
% R (resistance) (MS CoNS; L. Amer, CLSI breakpoints): 6%
% R (resistance) (MS CoNS; N America, CLSI breakpoints): 23.6%
% R (resistance) (MR CoNS; Asia/Pac, Eucast breakpoints): 55.8%
% R (resistance) (MR CoNS; Europe, Eucast breakpoints): 64.9%
% R (resistance) (MR CoNS; L. Amer, CLSI breakpoints): 57.8%
% R (resistance) (MR CoNS; N America, CLSI breakpoints): 64.9%
% R (resistance) (E. faecalis VS; L. Amer): 30%
% R (resistance) (E. faecalis VS; N America): 29.3%
% R (resistance) (E. faecalis VNS; L. Amer): 100%
% R (resistance) (E. faecalis VNS; N America): 97.4%
% R (resistance) (E. faecium VS; L. Amer): 78.4%
% R (resistance) (E. faecium VS; N America): 68.7%
% R (resistance) (E. faecium VNS; L. Amer): 100%
% R (resistance) (E. faecium VNS; N America): 99.6%
